Converted amounts (≈) assume the structure as drawn.
What was measured:
[1] = system: T1, E. faecalis ATCC 29212 (EF); experiment: microbe, parasite or virus in culture; set-up: broth microdilution MIC in BHI, Alamar Blue read-out, 37 °C; details: Enterococcus faecalis, ATCC29212, 24 h
T1 construct: ATCC 29212
Procedure: (§1) The inhibition activity against enterococci was evaluated by the microtitration broth method according to the Clinical and Laboratory Standards Institute with some modifications. The compounds were dissolved in DMSO and serially diluted in Brain Hearth Infusion (BHI) to reach concentrations 256–2 µg/mL. […] The experiment was repeated at least three times. All the investigated compounds were tested on their anti-staphylococcal activity against three clinical isolates of methicillin-resistant Staphylococcus aureus (MRSA) and S. aureus ATCC 29213 as the reference and quality control strain. […] All the compounds were tested against Enterococcus faecalis ATCC 29212 as the reference strain and three isolates from American crows of vanA-carrying vancomycin-resistant E. faecalis (VRE), and the activities, expressed as minimum inhibitory concentrations (MICs), are listed in Table 3.

[2] = system: T2, Enterococcus faecalis VRE 725 B; experiment: organism not typed; set-up: broth microdilution MIC in BHI, Alamar Blue read-out, 37 °C; details: 24 h
T2 construct: VRE 725B (vanA clinical isolate)
Procedure: as §1

[3] = system: T3, Enterococcus faecalis VRE 368; experiment: organism not typed; set-up: broth microdilution MIC in BHI, Alamar Blue read-out, 37 °C; details: 24 h
T3 construct: VRE 368 (vanA clinical isolate)
Procedure: as §1

[4] = system: T4, Enterococcus faecalis VRE 342 B; experiment: organism not typed; set-up: broth microdilution MIC in BHI, Alamar Blue read-out, 37 °C; details: 24 h
T4 construct: VRE 342 B (vanA clinical isolate)
Procedure: as §1

hCA IX = molecular target: T5, hCA IX (Homo sapiens, UniProt Q16790); experiment: biochemical; set-up: stopped-flow CO2 hydration assay, phenol red indicator at 557 nm, 15 min preincubation with inhibitor
T5 construct: gene CA9; recombinant
Procedure: (§2) AnSX.18MV-R Applied Photophysics stopped-flow instrument (Applied Photophysics, Leatherhead, UK) has been used for assaying the CA catalyzed CO2 hydration activity. Phenol red (at a concentration of 0.2 mM) has been used as an indicator, working at the absorbance maximum of 557 nm, with 20 mM Hepes (pH 7.5) as a buffer and 20 mM Na2SO4 (for maintaining constant the ionic strength), following the CA-catalyzed CO2 hydration reaction for a period of 10–100 s. The CO2 concentrations ranged from 1.7 to 17 mM for the determination of the kinetic parameters and inhibition constants. For each inhibitor, at least six traces of the initial 5–10% of the reaction were used for determining the initial velocity. The uncatalyzed rates were determined in the same manner and were subtracted from the total observed rates. Stock solutions of the inhibitor (0.1 mM) were prepared in distilled-deionized water, and dilutions up to 0.005 nM were done thereafter with the assay buffer. Inhibitor and enzyme solutions were preincubated together for 15 min at room temperature prior to assay in order to allow for the formation of the E–I complex. The inhibition constants were obtained by non-linear least-squares methods using PRISM 3 and the ChengPrusoff equation, as reported earlier, and represent the mean from at least three different determinations. All CA isoforms were recombinant ones and were prepared as reported earlier. Errors in the range of 5–10% of the reported value (Mean from three different assays, by stopped-flow technique). The presence of aminobenzenesulfonamide structural moiety in the structure of target compounds 1–44 can cause inhibition activity in these compounds against human carbonic anhydrases. The inhibition of physiologically relevant hCA I and hCA II can lead to various undesirable side effects. On the other hand, the inhibition of tumor-associated isoenzymes hCA IX and hCA XII could be a great benefit in tumor treatment. Inhibition of isoenzyme hCA VII, which is presented mostly in the brain, can be a new approach for the treatment of epilepsy or chronic neuropathic pain [42, 43]. Compounds 1–44 were evaluated as potential inhibitors of hCA I, hCA II, hCA VII, hCA IX, and hCA XII. The inhibition activities against individual hCAs were determined by methodology based on stopped-flow assay. For completeness, Table 2 also includes the previously published inhibition activities of compounds 2, 3, 5–12 and 18–19. Values of KIs were compared with clinically used sulfonamides as standards—AAZ (acetazolamide), BRZ (brinzolamide), DCP (dichlorphenamide), DZA (dorzolamide), EZA (ethoxzolamide), MZA (methazolamide), and IND (indisulam; canceled in clinical trials).

hCA II [5] = molecular target: T6, hCA II (Homo sapiens, UniProt P00918); experiment: biochemical; set-up: stopped-flow CO2 hydration assay, phenol red indicator at 557 nm, 15 min preincubation with inhibitor
T6 construct: gene CA2; recombinant
Procedure: as §2

hCA VII [6] = molecular target: T7, hCA VII (Homo sapiens, UniProt P43166); experiment: biochemical; set-up: stopped-flow CO2 hydration assay, phenol red indicator at 557 nm, 15 min preincubation with inhibitor
T7 construct: gene CA7; recombinant
Procedure: as §2

hCA I [7] = molecular target: T8, hCA I (Homo sapiens, UniProt P00915); experiment: biochemical; set-up: stopped-flow CO2 hydration assay, phenol red indicator at 557 nm, 15 min preincubation with inhibitor
T8 construct: gene CA1; recombinant
Procedure: as §2

[8] = stopped-flow CO2 hydration assay; format: biochemical, Homo sapiens; details: read-out: KI (nM) ^a / hCA I
Method in brief: (§3)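 Ki was derived by non-linear least squares using the Cheng–Prusoff equation. The underlying data were initial rates of CO2 hydration by recombinant human carbonic anhydrase, measured by stopped-flow for 10–100 s with 0.2 mM phenol red (557 nm), 20 mM Hepes pH 7.5, 20 mM Na2SO4 and 1.7–17 mM CO2, after a 15 min room-temperature preincubation of enzyme with inhibitor. Uncatalysed rates were subtracted, at least six traces were used per rate, and values were averaged over three or more determinations.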

hCA II [9] = molecular target: T6, hCA II; experiment: stopped-flow CO2 hydration assay; format: biochemical
Method in brief: as §3

hCA I [10] = molecular target: T8, hCA I; experiment: stopped-flow CO2 hydration assay; format: biochemical
Method in brief: as §3

[11] = system: T1, E. faecalis ATCC 29212 (EF); experiment: microbe, parasite or virus in culture; set-up: broth microdilution MIC in BHI, Alamar Blue read-out, 37 °C; details: Enterococcus faecalis, ATCC29212, 24 h; remark: listed apart in the source
Procedure: (§4) The inhibition activity against enterococci was evaluated by the microtitration broth method according to the Clinical and Laboratory Standards Institute with some modifications. The compounds were dissolved in DMSO and serially diluted in Brain Hearth Infusion (BHI) to reach concentrations 256–2 µg/mL. […] The experiment was repeated at least three times. All the investigated compounds were tested on their anti-staphylococcal activity against three clinical isolates of methicillin-resistant Staphylococcus aureus (MRSA) and S. aureus ATCC 29213 as the reference and quality control strain.

[12] = system: T3, Enterococcus faecalis VRE 368; experiment: organism not typed; set-up: broth microdilution MIC in BHI, Alamar Blue read-out, 37 °C; details: 24 h; remark: listed apart in the source
Procedure: as §4

[13] = system: T4, Enterococcus faecalis VRE 342 B; experiment: organism not typed; set-up: broth microdilution MIC in BHI, Alamar Blue read-out, 37 °C; details: 24 h; remark: listed apart in the source
Procedure: as §4

hCA VII [14] = molecular target: T7, hCA VII; experiment: stopped-flow CO2 hydration assay; format: biochemical
Method in brief: as §3

T8 sequence (P00915 2-261): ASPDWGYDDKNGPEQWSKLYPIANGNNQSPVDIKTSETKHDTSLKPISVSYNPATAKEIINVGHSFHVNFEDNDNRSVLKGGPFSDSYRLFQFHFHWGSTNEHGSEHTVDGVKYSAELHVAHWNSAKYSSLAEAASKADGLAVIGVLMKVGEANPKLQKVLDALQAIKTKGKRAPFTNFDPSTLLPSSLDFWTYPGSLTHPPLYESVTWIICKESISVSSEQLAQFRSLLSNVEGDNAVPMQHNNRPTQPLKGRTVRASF
T7 sequence (P43166 whole entry): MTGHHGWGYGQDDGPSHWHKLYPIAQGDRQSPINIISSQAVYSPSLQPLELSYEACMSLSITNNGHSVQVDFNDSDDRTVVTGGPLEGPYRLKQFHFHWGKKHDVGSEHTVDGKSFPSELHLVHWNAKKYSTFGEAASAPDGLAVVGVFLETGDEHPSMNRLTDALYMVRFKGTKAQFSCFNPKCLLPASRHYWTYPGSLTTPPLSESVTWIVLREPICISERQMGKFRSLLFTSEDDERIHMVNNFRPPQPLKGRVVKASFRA

| Structure (SMILES) | MIC [1] | MIC [2] | MIC [3] | MIC [4] | Ki (hCA IX) | Ki (hCA II [5]) | Ki (hCA VII [6]) | Ki (hCA I [7]) | Ki [8] | Ki (hCA II [9]) | Ki (hCA I [10]) | MIC [11] | MIC [12] | MIC [13] | Ki (hCA VII [14]) |
| --- | --- | --- | --- | --- | --- | --- | --- | --- | --- | --- | --- | --- | --- | --- | --- |
| NS(=O)(=O)c1ccc(CNc2nc(NCC(O)CO)nc(Nc3ccc(C(=O)/C=C/c4ccc(O)cc4)cc3)n2)cc1 (stereo not drawn) [compound 28, 28] | > 444 µM | > 444 µM | > 444 µM | > 444 µM | 8460 nM | 184 nM | 594 nM | 8220 nM |  |  |  |  |  |  |  |
| NS(=O)(=O)c1ccc(CCNc2nc(Nc3ccc(O)cc3)nc(Nc3ccc(C(=O)/C=C/c4ccccc4)cc3)n2)cc1 [compound 21, (E)-4-[2-({4-[(4-Cinnamoylphenyl)amino]-6-[(4-hydroxyphenyl)amino]-1,3,5-triazin-2-yl}amino)ethyl]benzenesulfonamide] |  | 26.3 µM (≈ 16 µg/mL) |  |  |  |  |  |  | > 10000 nM | 3160 nM | > 10000 nM | 26.3 µM (≈ 16 µg/mL) | 26.3 µM (≈ 16 µg/mL) | 26.3 µM (≈ 16 µg/mL) | 810 nM |
| NS(=O)(=O)c1ccc(CNc2nc(NCCCO)nc(Nc3ccc(C(=O)/C=C/c4cccc(O)c4)cc3)n2)cc1 [compound 15, 15] |  | 111 µM (≈ 63.9 µg/mL) |  |  |  |  |  |  | > 10000 nM | 3020 nM | > 10000 nM | 222 µM (≈ 128 µg/mL) | 111 µM (≈ 63.9 µg/mL) | 222 µM (≈ 128 µg/mL) | 25.9 nM |
